One experiment has as its system Cercospora arachidicola. The experiment in a line: Residual-protective action against Cercospora arachidicola in groundnuts. The note with it: mixture of the labelled component I with component II; groundnut plants; 0.02% of active ingredient; assessed 12 days after infection. The experiment is classed as in vivo. Here is the method:
The plants are incubated for 72 hours at 21° and high atmospheric humidity and subsequently placed in a greenhouse until the typical foliar lesions appear. The activity of the active ingredient is assessed 12 days after the infection on the basis of number and size of the foliar lesions.

Another experiment deals with Fusarium nivale. The experiment is described as follows: Activity against Fusarium nivale in rye (seed dressing, field). The experiment is classed as in vivo. The conditions noted are these: mixture of the labelled component I with component II, rye cv. Tetrahell seed dressing, 20 or 6 ppm of a.i. based on seed weight. The protocol: which has been infected naturally with Fusarium nivale is dressed with the test fungicide in a roller mixer, the following concentrations being used: 20 or 6 ppm of a.i. (based on the seed weight). The infected and treated rye is sown in the open in October in plots of 3 m length and 6 seed rows, using a seed drill. 3 replications per concentration. Until the disease level is evaluated, the experimental field is subjected to the field conditions of normal crop management (preferably in a region with unbroken snow cover during the winter months). To assess the phytotoxicity, seedling emergence is scored in autumn and plant density/tillering in spring. To assess the activity of the active ingredient, the percentage of Fusarium-infected plants is evaluated early in the year, immediately after the snows have melted.

The subject of another experiment is Erysiphe graminis. The experiment is described as follows: Activity against Erysiphe graminis in barley (residual-protective and systemic action). The note with it: mixture of the labelled component I with component II; barley; a) spray 0.02% of active ingredient, b) 0.002% based on soil volume; assessed 12 days after infection. The experiment is classed as in vivo. Here is the method:
The infected plants are placed in a greenhouse at 22°. The fungus infestation is assessed 12 days after the infection. […] 48 hours later, the plants are dusted with conidia of the fungus. The infected plants are placed in a greenhouse at 22°. The fungus infestation is assessed 12 days after the infection.

A further experiment deals with Puccinia recondita. The experiment is described as follows: Activity against Puccinia recondita in wheat (residual-protective and systemic action). The experiment is classed as in vivo. The note with it: mixture of the labelled component I with component II; wheat; a) spray 0.02% of active ingredient, b) 0.006% based on soil volume; assessed 12 days after infection.
A further experiment concerns Botrytis cinerea. The experiment in a line: Activity against Botrytis cinerea on apple fruits (residual-protective action). The experiment is classed as in vivo. The conditions noted are these: mixture of the labelled component I with component II = furalaxyl (II C), metalaxyl (II A) or R-metalaxyl (II B); damaged apples; 0.02% of active ingredient; one week incubation. Here is the method:
The treated fruits are subsequently inoculated with a spore suspension of the fungus and incubated for one week at high atmospheric humidity and approximately 20° C. The fungicidal activity of the test substance is deduced from the number of the sites of damage where rotting has been observed.

The test system of another experiment is Phytophthora. The conditions noted are these: mixture of the labelled component I, in particular in combination with metalaxyl (II A), benalaxyl (II D) or R-metalaxyl (II B); potato (Bintje); a) spray 0.02% of active ingredient, b) 0.002% based on soil volume; 5 days incubation.
Another experiment deals with Phytophthora infestans. The experiment is classed as in vivo. The note with it: mixture of the labelled component I with component II = oxadixyl (II F), ofurace (II E), or in particular metalaxyl (II A) or R-metalaxyl (II B); tomato cv. Roter Gnom; a) curative 200 ppm, b) preventive-systemic 60 ppm relative to soil volume.
Another experiment relates to Plasmopara viticola. The experiment is described as follows: Activity against Plasmopara viticola in grapevines. The conditions noted are these: mixture of the labelled component I with component II = ofurace (II E), oxadixyl (II F), or in particular metalaxyl (II A) or R-metalaxyl (II B); grapevine seedlings; 0.02% of active ingredient; assessed 6 days after infection.

The subject of a further experiment is Septoria nodorum. The experiment is described as follows: Activity against Septoria nodorum in wheat. The experiment is classed as in vivo. The note with it: mixture of the labelled component I with component II; wheat 3-leaf stage; 60 ppm of a.i.; assessed 13 days after infection. The protocol: 13 days after the infection, the fungus infestation is assessed.

Structures are written as SMILES.

Procedure for Plasmopara viticola: Grapevine seedlings at the 4-to-5-leaf stage are sprayed to drip point with an aqueous spray mixture prepared with a wettable powder of the active ingredient mixture (0.02% of active ingredient) and, 24 hours later, infected with a sporangia suspension of the fungus. The fungus infestation is assessed 6 days after infection, during which time a relative atmospheric humidity of 95 to 100% and a temperature of 20° are maintained.

Consider `CON=C(C(=O)OC)c1ccccc1CON=C(c1ccc(OC(F)(F)F)cc1)C1CC1` [(38), methyl 2-[α-{[(α-cyclopropyl-4-trifluoromethoxybenzyl)imino]oxy}-o-tolyl]glyoxylate O-methyloxime], for which the “activity of active ingredient mixture (number and size of foliar lesions)” value (from here on “activity … (number and size of foliar lesions)”) in the experiment on Cercospora arachidicola is listed as “markedly increased activity”. In the experiment on Fusarium nivale, the “synergistic effect of active ingredient mixture (percentage of Fusarium-infected plants)” value is “good synergistic effect”.
Regarding `CON=C(C(=O)OC)c1ccccc1CON=C(c1ccc(C(F)(F)F)cc1)C1CC1` [(37)], the “synergistic effect of active ingredient mixture (fungus infestation)” value (“synergistic effect … (fungus infestation)” for short) with Erysiphe graminis is recorded as “good synergistic effect”.
Regarding `CON=C(C(=O)OC)c1ccccc1CON=C(c1ccc(F)cc1)C1CC1` [(09), methyl 2-[α-{[(α-cyclopropyl-4-fluorobenzyl)imino]oxy}-o-tolyl]glyoxylate O-methyloxime], the “synergistic effect … (fungus infestation)” value with Erysiphe graminis and with Puccinia recondita was “good synergistic effect” each time. In the experiment on Botrytis cinerea, the “activity of active ingredient mixture (number of sites of damage with rotting)” value is given as “markedly increased activity”.
For `CON=C(C(=O)OC)c1ccccc1CON=C(c1ccc(Cl)cc1)C1CC1` [(15), methyl 2-[α-{[(α-cyclopropyl-4-chlorobenzyl)imino]oxy}-o-tolyl]glyoxylate O-methyloxime], the “synergistic effect … (fungus infestation)” value in the experiment on Phytophthora was “good synergistic effect”; with Erysiphe graminis, “good synergistic effect”; in the experiment on Plasmopara viticola, “marked synergistic effect”; in the experiment on Puccinia recondita, “good synergistic effect”. Besides, the “activity … (number and size of foliar lesions)” value in the experiment on Cercospora arachidicola is recorded as “markedly increased activity”. Moreover, in the experiment with Phytophthora infestans, the “synergistic effect of active ingredient mixture (number and size of foliar lesions)” value is listed as “good synergistic effect”. The “activity of active ingredient mixture (number of sites of damage with rotting)” value in the experiment on Botrytis cinerea is on record as “markedly increased activity”.
Consider `COC=C(C(=O)OC)c1ccccc1CON=C(C)c1cccc(OC(F)(F)F)c1` [(18), methyl 3-methoxy-2-[α-{[(α-methyl-3-trifluoromethoxybenzyl)imino]oxy}-o-tolyl]acrylate], for which the “synergistic effect … (fungus infestation)” value in the experiment on Phytophthora is on record as “good synergistic effect”; with Erysiphe graminis it was “good synergistic effect”; in the experiment on Plasmopara viticola, “marked synergistic effect”; in the experiment on Puccinia recondita, “good synergistic effect”. For the same molecule, the “activity … (number and size of foliar lesions)” value in the experiment on Cercospora arachidicola is recorded as “markedly increased activity”. The “synergistic effect of active ingredient mixture (percentage of Fusarium-infected plants)” value in the experiment with Fusarium nivale was “good synergistic effect”. The “activity of active ingredient mixture (number of sites of damage with rotting)” value in the experiment with Botrytis cinerea is listed as “markedly increased activity”.
For `CON=C(C(=O)OC)c1ccccc1CON=C(C)c1cccc(C(F)(F)F)c1` [(35), methyl 2-[α-{[(α-methyl-3-trifluoromethylbenzyl)imino]oxy}-o-tolyl]glyoxylate O-methyloxime], the “synergistic effect … (fungus infestation)” value in the experiment with Phytophthora was “good synergistic effect”; in the experiment on Erysiphe graminis, “good synergistic effect”; in the experiment with Plasmopara viticola, “marked synergistic effect”; in the experiment with Puccinia recondita, “good synergistic effect”. Also, the “activity of active ingredient mixture (fungus infestation)” value (“activity … (fungus infestation)” below) in the experiment with Septoria nodorum is on record as “markedly increased activity”. Moreover, the “synergistic effect of active ingredient mixture (number and size of foliar lesions)” value in the experiment on Phytophthora infestans is listed as “good synergistic effect”. Moreover, the “activity of active ingredient mixture (number of sites of damage with rotting)” value with Botrytis cinerea is recorded as “markedly increased activity”.
Turning to `CON=C(C(=O)OC)c1ccccc1CON=C(C)c1ccc(Cl)cc1` [(25), methyl 2-[α-{[(α-methyl-4-chlorobenzyl)imino]oxy}-o-tolyl]glyoxylate O-methyloxime], the “activity … (fungus infestation)” value in the experiment with Septoria nodorum was “markedly increased activity”. For the same molecule, the “synergistic effect … (fungus infestation)” value in the experiment with Erysiphe graminis is “good synergistic effect”.
Turning to `COC=C(C(=O)OC)c1ccccc1CON=C(C)c1ccc2c(c1)OC(F)(F)O2` [(29), methyl 3-methoxy-2-[α-{[(α-methyl-3,4-(difluoromethylenedioxy)benzyl)-imino]oxy}-o-tolyl]acrylate], the “synergistic effect … (fungus infestation)” value with Puccinia recondita is listed as “good synergistic effect”.
`CON=C(C(=O)OC)c1ccccc1CON=C(C)c1ccc2c(c1)OC(F)(F)O2` [(6), methyl 2-[α-{[(α-methyl-3,4-(difluoromethylenedioxy)benzyl)imino]-oxy}-o-tolyl]glyoxylate O-methyloxime]: the “synergistic effect … (fungus infestation)” value in the experiment on Phytophthora is “good synergistic effect”; with Erysiphe graminis, “good synergistic effect”; in the experiment with Plasmopara viticola, “marked synergistic effect”; in the experiment on Puccinia recondita, “good synergistic effect”. Moreover, the “synergistic effect of active ingredient mixture (percentage of Fusarium-infected plants)” value in the experiment with Fusarium nivale is on record as “good synergistic effect”.
`COC=C(C(=O)OC)c1ccccc1CON=C(C)c1ccc(Cl)cc1` [(26), methyl 3-methoxy-2-[α-{[(α-methyl-4-chlorobenzyl)imino]oxy}-o-tolyl]acrylate]: the “activity … (number and size of foliar lesions)” value in the experiment on Cercospora arachidicola is “markedly increased activity”. Moreover, the “synergistic effect of active ingredient mixture (percentage of Fusarium-infected plants)” value in the experiment on Fusarium nivale is “good synergistic effect”.
Turning to `COC=C(C(=O)OC)c1ccccc1CON=C(C)c1ccc2c(c1)OCO2` [(12), methyl 3-methoxy-2-[α-{[(α-methyl-3,4-methylenedioxybenzyl)imino]oxy}-o-tolyl]acrylate], the “synergistic effect … (fungus infestation)” value in the experiment on Phytophthora is recorded as “good synergistic effect”; in the experiment on Plasmopara viticola, “marked synergistic effect”. The “synergistic effect of active ingredient mixture (number and size of foliar lesions)” value with Phytophthora infestans is listed as “good synergistic effect”.
Take `COC=C(C(=O)OC)c1ccccc1CON=C(C)c1cccc(C(F)(F)F)c1` [(24), methyl 3-methoxy-2-[α-{[(α-methyl-3-trifluoromethylbenzyl)imino]oxy}-o-tolyl]acrylate]: the “synergistic effect … (fungus infestation)” value in the experiment on Phytophthora and in the experiment with Erysiphe graminis was “good synergistic effect” each time. Also, the “activity … (number and size of foliar lesions)” value in the experiment with Cercospora arachidicola was “markedly increased activity”. Besides, the “activity … (fungus infestation)” value with Septoria nodorum is given as “markedly increased activity”. Moreover, in the experiment with Phytophthora infestans, the “synergistic effect of active ingredient mixture (number and size of foliar lesions)” value was “good synergistic effect”. The “activity of active ingredient mixture (number of sites of damage with rotting)” value in the experiment on Botrytis cinerea is listed as “markedly increased activity”.
For `COC=C(C(=O)OC)c1ccccc1CON=C(c1ccc(Cl)cc1)C1CC1` [(36), methyl 3-methoxy-2-[α-{[(α-cyclopropyl-4-chlorobenzyl)imino]oxy}-o-tolyl]acrylate], the “activity … (number and size of foliar lesions)” value with Cercospora arachidicola is recorded as “markedly increased activity”. In the experiment with Septoria nodorum, the “activity … (fungus infestation)” value is “markedly increased activity”. Further, in the experiment on Phytophthora infestans, the “synergistic effect of active ingredient mixture (number and size of foliar lesions)” value is reported as “good synergistic effect”. Also, the “synergistic effect … (fungus infestation)” value with Erysiphe graminis was “good synergistic effect”. Moreover, the “activity of active ingredient mixture (number of sites of damage with rotting)” value in the experiment with Botrytis cinerea is recorded as “markedly increased activity”.

For the origin of these results see US6441028B2, “Microbicidal compositions” (Bayer Aktiengesellschaft, priority 1995, dated 2002).
